# In article PMC7883289, “Synthesis of Paeonol-Ozagrel Conjugate: Structure Characterization and In Vivo Anti-Ischemic Stroke potential” (Frontiers in Pharmacology, 2021):
# Key:
# [1] = system: middle cerebral artery occlusion (MCAO) rats; test: Evaluation of neurological deficit (Longa score) in MCAO rats; assay type: in vivo; conditions: 24 h after reperfusion, single iv dose 2 h after reperfusion: paeonol and OS 3 mg/kg, POC 4.5 mg/kg, n = 6
# Protocol: Male Sprague Dawley (SD) rats weighing among 220 g-230 g (Anhui Medicine University, Hefei, China; certificate number: SCXK20190,003) were housed under ad libitum access to food and water with a standardized light-dark cycle condition (25 ± 2°C, 12-hour light/dark cycle). All the experimental protocols were performed in accordance with the Institutional Animal Care and Use Committee of Anhui University of Chinese Medicine (Animal ethics number: AHUCM-rats-2019001). We used the minimal number of study animals (n = 6 rats in each group for different experiments). The rats were fastened upon the operating table in a supine position after being anesthetized with 2% pelltobarbitalum natricum (50 mg/kg). After disinfection of the skin within close proximity of the operative region, the right common carotid artery (CCA), external carotid artery (ECA) and internal carotid artery (ICA) were exposed with blunt dissection. The CCA was temporarily ligated and the ECA were permanently ligated ([Liu et al., 2016]). A nylon monofilament surgical thread was introduced into the ICA to block the MCA when the blunted distal end met resistance. After 2 h of occlusion, reperfusion was accomplished to restore blood supply to the MCA area by removing the filament ([Li et al., 2009]; [Zhai et al., 2017]). […] Rats were split randomly into five groups, including the sham, model, paeonol, OS and POC group. […] Neurological deficit was evaluated 24 h after reperfusion (blinded to experimenters). […] The rating score was assessed by the following standard: no neurological deficit, 0; failure to extend left forepaw fully, one; spontaneous circling to the left, two; falling to the left, three; inability to walk spontaneously and coma of consciousness, 4. […] Neurological scores for each group were calculated using six rats according to a sample size calculation (α err prob = 0.05, 1-β err prob = 0.95) and references ([Katayama et al., 2017]; [[…] al., 2019]; [Zheng et al., 2019]).
# [2] = system: middle cerebral artery occlusion (MCAO) rats; test: Measurement of infarct volume by TTC staining in MCAO rats; assay type: in vivo; conditions: 24 h after reperfusion, single iv dose: paeonol and OS 3 mg/kg, POC 4.5 mg/kg, n = 6
# Protocol: Male Sprague Dawley (SD) rats weighing among 220 g-230 g (Anhui Medicine University, Hefei, China; certificate number: SCXK20190,003) were housed under ad libitum access to food and water with a standardized light-dark cycle condition (25 ± 2°C, 12-hour light/dark cycle). All the experimental protocols were performed in accordance with the Institutional Animal Care and Use Committee of Anhui University of Chinese Medicine (Animal ethics number: AHUCM-rats-2019001). We used the minimal number of study animals (n = 6 rats in each group for different experiments). The rats were fastened upon the operating table in a supine position after being anesthetized with 2% pelltobarbitalum natricum (50 mg/kg). After disinfection of the skin within close proximity of the operative region, the right common carotid artery (CCA), external carotid artery (ECA) and internal carotid artery (ICA) were exposed with blunt dissection. The CCA was temporarily ligated and the ECA were permanently ligated ([Liu et al., 2016]). A nylon monofilament surgical thread was introduced into the ICA to block the MCA when the blunted distal end met resistance. After 2 h of occlusion, reperfusion was accomplished to restore blood supply to the MCA area by removing the filament ([Li et al., 2009]; [Zhai et al., 2017]). […] Rats were split randomly into five groups, including the sham, model, paeonol, OS and POC group. After 2 h of reperfusion, the paeonol and OS groups received the drug by intravenous injection at a single dose of 3 mg/kg ([Imamura et al., 2003]; [Park et al., 2010]; [Gai et al., 2019]), which the doses of paeonol and OS uesd previously were benificial in rats and the dose of OS is within the clinical dose range. […] Cerebral infarction volume was determined using TTC staining. […] The infarction and total brain volume were quantified using ImageJ software. The infarct volume was calculated as a ratio of the infarcted tissue relative to the total area of the whole-brain coronal section ([Ye and Gao, 2008]; [Katayama et al., 2017]). […]
SMILES,"neurological deficits score (Longa, 0-4) [1]",cerebral infarction volume percentage [2]
"O=C([O-])/C=C/c1ccc(Cn2ccnc2)cc1.[Na+] [OS, Ozagrel sodium]",2.00 ± 0.63,18.68% ± 1.35
COc1ccc(C(C)=O)c(O)c1 [paeonol],2.50 ± 0.55,20.87% ± 1.43
